Results from US7381705B2, “Inhibitors of hepatitis C virus” (The Administrators Of The Tulane Educational Fund, priority 2004, dated 2008).
Read-outs that look alike come from different tables or passages of the source. Ends that are not written are not given here. Peptide text beside a SMILES is read from it.

Test system: HCV pseudotype (HIV core proteins, HCV E1 and E2 of strain H77)
Conditions: for Percent inhibition: 25 μM; for Inhibition of HCV pseudotype infectivity (in words): summary of Tables 7 and 8
[1] = HCV H77 1a E2 peptides at ~25 μM, Table 7, virus alone 448,123
[2] = HCV J4 1b E2 peptides at ~25 μM, Table 8, controls as in Table 7

Row | Compound | Percent inhibition [%] | Luciferase units [1] | Luciferase units [2] | Inhibition of HCV pseudotype infectivity (in words)
1 | GRTTAGLVGLLTPGAKQN [peptide 3, GRTTAGLVGLLTPGAKQN] | 0.05 | 447,906 luciferase units (lumens) |  | 
2 | CC(C)[C@H](NC(=O)CNC(=O)[C@H](CS)NC(=O)[C@@H]1CCCN1C(=O)[C@H](CCCNC(=N)N)NC(=O)[C@@H]1CCCN1)C(=O)N[C@H](C(=O)N1CCC[C@H]1C(=O)N[C@@H](C)C(=O)N[C@@H](CO)C(=O)N[C@@H](CCC(N)=O)C(=O)N[C@H](C(=O)N[C@@H](CS)C(=O)NCC(=O)N1CCC[C@H]1C(=O)N[C@H](C(=O)N[C@@H](Cc1ccc(O)cc1)C(=O)N[C@@H](CS)C(=O)O)C(C)C)C(C)C)C(C)C [compound 92, PRPCGVVPASQVCGPVYC] (H-PRPCGVVPASQVCGPVYC-OH; N-terminus and C-terminus assumed) | 16.9 |  | 372,400 luciferase units (lumens) | 
3 | LLSTTQWQVLPCSFTTLP [compound 40, LLSTTQWQVLPCSFTTLP] | 1.3 | 442,346 luciferase units (lumens) |  | 
4 | GNNTLLCPTDCFRKHPEA [compound 27] | −28.4 | 575,206 luciferase units (lumens) |  | 
5 | AFVSFAIKWEYILLLFLL [compound 119, AFVSFAIKWEYILLLFLL] | 84.6 |  | 69,220 luciferase units (lumens) | 
6 | HYPCTLNFSIFKVRMYVG [compound 109, HYPCTLNFSIFKVRMYVG] | 79.4 |  | 96,893 luciferase units (lumens) | inhibitory
7 | RSELSPLLLSTTQWQVLP [compound 39, RSELSPLLLSTTQWQVLP] | 11.6 | 400,756 luciferase units (lumens) |  | 
8 | CC[C@H](C)[C@H](NC(=O)[C@H](Cc1c[nH]cn1)NC(=O)[C@H](Cc1c[nH]c2ccccc12)NC(=O)[C@H](CO)NC(=O)CNC(=O)[C@H](CC(N)=O)NC(=O)[C@@H](NC(=O)[C@H](CC(N)=O)NC(=O)[C@@H](NC(=O)[C@H](CC(C)C)NC(=O)[C@H](CCC(N)=O)NC(=O)[C@@H](NC(=O)[C@H](CCCCN)NC(=O)[C@H](CCC(N)=O)NC(=O)[C@H](CO)NC(=O)[C@H](C)N)[C@@H](C)CC)C(C)C)[C@@H](C)O)C(=O)N[C@@H](CC(N)=O)C(=O)N[C@@H](CCCNC(=N)N)C(=O)O [compound 83, ASQKIQLVNTNGSWHINR] | −15.8 |  | 518,993 luciferase units (lumens) | 
9 | CC[C@H](C)[C@H](NC(=O)[C@@H](NC(=O)[C@H](CS)NC(=O)[C@@H]1CCCN1)C(C)C)C(=O)NCC(=O)NCC(=O)N[C@H](C(=O)NCC(=O)N[C@@H](CC(N)=O)C(=O)N[C@@H](CC(N)=O)C(=O)N[C@H](C(=O)N[C@@H](CC(C)C)C(=O)N[C@@H](CC(C)C)C(=O)N[C@@H](CS)C(=O)N1CCC[C@H]1C(=O)N[C@H](C(=O)N[C@@H](CC(=O)O)C(=O)N[C@@H](CS)C(=O)O)[C@@H](C)O)[C@@H](C)O)C(C)C [compound 26, PCVIGGVGNNTLLCPTDC] (H-PCVIGGVGNNTLLCPTDC-OH; N-terminus and C-terminus assumed) | 51.6 | 216,706 luciferase units (lumens) |  | 
10 | CC(C)C[C@H](NC(=O)[C@H](CC(C)C)NC(=O)[C@H](CC(C)C)NC(=O)[C@@H]1CCCN1C(=O)[C@H](CO)NC(=O)[C@H](CC(C)C)NC(=O)[C@H](CCC(=O)O)NC(=O)[C@H](CO)NC(=O)[C@H](CCCNC(=N)N)NC(=O)[C@H](CC(=O)O)NC(=O)[C@H](CCCNC(=N)N)NC(=O)[C@H](CC(=O)O)NC(=O)[C@H](CCC(=O)O)NC(=O)[C@H](CC(C)C)NC(=O)[C@H](CC(N)=O)NC(=O)[C@@H](N)CS)C(=O)N[C@@H](CO)C(=O)N[C@H](C(=O)O)[C@@H](C)O [compound 113, CNLEDRDRSELSPLLLST] | −27.3 |  | 570,553 luciferase units (lumens) | 
11 | PTDCFRKHPEATYSRCGS [compound 28] | 11.9 | 394,780 luciferase units (lumens) |  | 
12 | CC[C@H](C)[C@H](NC(=O)[C@@H](NC(=O)[C@H](CC(C)C)NC(=O)[C@H](CC(N)=O)NC(=O)[C@H](CCC(=O)O)NC(=O)[C@H](CC(C)C)NC(=O)[C@H](C)NC(=O)[C@H](C)NC(=O)[C@H](CCC(=O)O)NC(=O)[C@H](C)NC(=O)[C@H](CCC(N)=O)NC(=O)[C@H](CO)NC(=O)[C@@H](NC(=O)[C@H](CC(C)C)NC(=O)[C@H](CC(C)C)NC(=O)[C@H](CCSC)NC(=O)[C@H](CCSC)NC(=O)[C@@H](N)Cc1c[nH]c2ccccc12)[C@@H](C)CC)C(C)C)C(=O)O [compound 50, WMMLLISQAEAALENLVI] | 87.9 | 58,790 luciferase units (lumens) |  | 
13 | QNIVDVQYLYGVGSSIAS [compound 44, QNIVDVQYLYGVGSSIAS] | 79.6 | 91,266 luciferase units (lumens) |  | inhibitory
14 | LFLLLADARVCSCLWMML [compound 48] | 35.1 | 290,786 luciferase units (lumens) |  | 
15 | DWFAQGWGPITYTKPNSS [compound 89, DWFAQGWGPITYTKPNSS] | −0.3 |  | 449,293 luciferase units (lumens) | 
16 | TSLFSSGASQKIQLVNTN [compound 82, TSLFSSGASQKIQLVNTN] | 61.4 |  | 173,156 luciferase units (lumens) | 
17 | CC[C@H](C)[C@H](NC(=O)[C@H](CCC(N)=O)NC(=O)[C@H](Cc1c[nH]c2ccccc12)NC(=O)[C@H](CCC(=O)O)NC(=O)[C@@H](NC(=O)[C@@H](NC(=O)[C@H](CO)NC(=O)[C@H](CC(C)C)NC(=O)[C@H](CC(C)C)NC(=O)[C@H](CC(C)C)NC(=O)[C@@H]1CCCN1C(=O)[C@H](CO)NC(=O)[C@H](CC(C)C)NC(=O)[C@H](CCC(=O)O)NC(=O)[C@H](CO)NC(=O)[C@@H](N)CCCNC(=N)N)[C@@H](C)O)[C@@H](C)O)C(=O)N[C@@H](CC(C)C)C(=O)N1CCC[C@H]1C(=O)O [compound 114, RSELSPLLLSTTEWQILP] | 39.7 |  | 270,190 luciferase units (lumens) | 

Row | Compound | Percent inhibition [%] | Luciferase units [1] | Luciferase units [2] | Inhibition of HCV pseudotype infectivity (in words)
18 | HPEATYTKCGSGPWLTPR [compound 105, HPEATYTKCGSGPWLTPR] | −23.2 |  | 552,170 luciferase units (lumens) | 
19 | GPISYANGSGLDERPYCW [compound 13, GPISYANGSGLDERPYCW] | 31.1 | 313,323 luciferase units (lumens) |  | 
20 | TYSWGANDTDVFVLNNTR [compound 20, TYSWGANDTDVFVLNNTR] | 48.4 | 231,373 luciferase units (lumens) |  | 
21 | TGLIHLHQNIVDVQYLYG [compound 43, TGLIHLHQNIVDVQYLYG] | 92.8 | 32,283 luciferase units (lumens) |  | inhibitory
22 | HVTGGSAGRTTAGLVGLL [peptide 2, HVTGGSAGRTTAGLVGLL] | 0.2 | 447,336 luciferase units (lumens) |  | 
23 | TDRSGVPTYSWGENETDV [compound 96, TDRSGVPTYSWGENETDV] | −21.5 |  | 544,596 luciferase units (lumens) | 
24 | CC[C@H](C)[C@H](NC(=O)[C@H](CC(N)=O)NC(=O)[C@H](CS)NC(=O)[C@@H]1CCCN1)C(=O)NCC(=O)NCC(=O)N[C@H](C(=O)NCC(=O)N[C@@H](CC(N)=O)C(=O)N[C@@H](CCCNC(=N)N)C(=O)N[C@H](C(=O)N[C@@H](CC(C)C)C(=O)N[C@H](C(=O)N[C@@H](CS)C(=O)N1CCC[C@H]1C(=O)N[C@H](C(=O)N[C@@H](CC(=O)O)C(=O)N[C@@H](CS)C(=O)O)[C@@H](C)O)[C@@H](C)CC)[C@@H](C)O)C(C)C [compound 102, PCNIGGVGNRTLICPTDC] (H-PCNIGGVGNRTLICPTDC-OH; N-terminus and C-terminus assumed) | 15.8 |  | 377,216 luciferase units (lumens) | 
25 | DTDVFVLNNTRPPLGNWF [compound 21, DTDVFVLNNTRPPLGNWF] | 45.9 | 242,223 luciferase units (lumens) |  | 
26 | PNSSDQRPYCWHYAPRPC [compound 90] | 5.5 |  | 423,326 luciferase units (lumens) | 
27 | AGVDAETHVTGGSAGRTT [peptide 1, AGVDAETHVTGGSAGRTT] | 44.1 | 250,376 luciferase units (lumens) |  | 
28 | TKTCGGPPCNIGGVGNRT [compound 101] | −12.0 |  | 502,096 luciferase units (lumens) | 
29 | AKQNIQLINTNGSWHINS [peptide 5, AKQNIQLINTNGSWHINS] | 89.3 | 48,000 luciferase units (lumens) |  | inhibitory
30 | LLSTTEWQILPCAFTTLP [compound 115, LLSTTEWQILPCAFTTLP] | −6.2 |  | 475,713 luciferase units (lumens) | 
31 | GSGLDERPYCWHYPPRPC [compound 14] | 37.6 | 279,626 luciferase units (lumens) |  | 
32 | CDLEDRDRSELSPLLLST [compound 38, CDLEDRDRSELSPLLLST] | 23.0 | 345,110 luciferase units (lumens) |  | 
33 | DYPYRLWHYPCTLNFSIF [compound 108, DYPYRLWHYPCTLNFSIF] | 90.9 |  | 40,853 luciferase units (lumens) | inhibitory
34 | CSCC[C@H](NC(=O)[C@@H](NC(=O)[C@H](CC(=O)O)NC(=O)[C@@H](NC(=O)[C@@H](N)CCC(=O)O)[C@@H](C)O)C(C)C)C(=O)N[C@@H](CC(C)C)C(=O)N[C@@H](CC(C)C)C(=O)N[C@@H](CC(N)=O)C(=O)N[C@@H](CC(N)=O)C(=O)N[C@H](C(=O)N[C@@H](CCCNC(=N)N)C(=O)N1CCC[C@H]1C(=O)N1CCC[C@H]1C(=O)N[C@@H](CCC(N)=O)C(=O)NCC(=O)N[C@@H](CC(N)=O)C(=O)N[C@@H](Cc1c[nH]c2ccccc12)C(=O)N[C@@H](Cc1ccccc1)C(=O)O)[C@@H](C)O [compound 98, ETDVMLLNNTRPPQGNWF] | −4.4 |  | 467,636 luciferase units (lumens) | 
